Paper PMC4437783, “An Improved Method for P2X7R Antagonist Screening” (PLoS ONE, 2015)
Each block holds one compound with its values, some of them ahead of it.

What was measured:
Assay type in all cases: cell-based
[1] = target: T1, P2X7 receptor (mP2X7R) (Mus musculus, UniProt Q9Z1M0); assay: inhibition of ATP-induced dye uptake in J774.G8 cells, plate reader
T1 construct: gene P2rx7; natively expressed in J774.G8 macrophages
T1 sequence (Q9Z1M0 1-595): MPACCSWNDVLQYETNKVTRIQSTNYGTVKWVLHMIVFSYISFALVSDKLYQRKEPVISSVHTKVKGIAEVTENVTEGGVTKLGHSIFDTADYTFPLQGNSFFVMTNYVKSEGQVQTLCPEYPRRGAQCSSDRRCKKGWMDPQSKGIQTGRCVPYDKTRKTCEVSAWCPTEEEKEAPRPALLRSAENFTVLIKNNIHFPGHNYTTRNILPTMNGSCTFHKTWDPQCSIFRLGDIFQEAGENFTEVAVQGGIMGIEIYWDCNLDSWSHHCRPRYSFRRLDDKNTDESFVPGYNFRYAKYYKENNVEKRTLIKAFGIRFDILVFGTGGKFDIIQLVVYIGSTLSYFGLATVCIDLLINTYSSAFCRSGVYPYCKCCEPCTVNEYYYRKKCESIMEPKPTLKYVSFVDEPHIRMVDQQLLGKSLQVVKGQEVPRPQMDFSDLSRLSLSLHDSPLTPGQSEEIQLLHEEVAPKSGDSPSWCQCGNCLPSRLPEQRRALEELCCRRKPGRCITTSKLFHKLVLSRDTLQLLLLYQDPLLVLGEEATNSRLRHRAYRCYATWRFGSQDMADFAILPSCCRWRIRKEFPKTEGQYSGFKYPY

[2] = target: T1, P2X7 receptor (mP2X7R); assay: inhibition of ATP-induced PI dye uptake in J774.G8 cells, plate reader
[3] = target: T1, P2X7 receptor (mP2X7R); assay: block of ATP-induced PI dye uptake in J774.G8 cells at a single concentration ([…])
[4] = target: T2, P2X7 receptor (P2X7R) (Homo sapiens, UniProt Q99572); assay: block of ATP-induced PI dye uptake in U937 cells at a single concentration ([…])
T2 construct: gene P2RX7; native in U937 human monocyte cells
T2 sequence (Q99572 1-595): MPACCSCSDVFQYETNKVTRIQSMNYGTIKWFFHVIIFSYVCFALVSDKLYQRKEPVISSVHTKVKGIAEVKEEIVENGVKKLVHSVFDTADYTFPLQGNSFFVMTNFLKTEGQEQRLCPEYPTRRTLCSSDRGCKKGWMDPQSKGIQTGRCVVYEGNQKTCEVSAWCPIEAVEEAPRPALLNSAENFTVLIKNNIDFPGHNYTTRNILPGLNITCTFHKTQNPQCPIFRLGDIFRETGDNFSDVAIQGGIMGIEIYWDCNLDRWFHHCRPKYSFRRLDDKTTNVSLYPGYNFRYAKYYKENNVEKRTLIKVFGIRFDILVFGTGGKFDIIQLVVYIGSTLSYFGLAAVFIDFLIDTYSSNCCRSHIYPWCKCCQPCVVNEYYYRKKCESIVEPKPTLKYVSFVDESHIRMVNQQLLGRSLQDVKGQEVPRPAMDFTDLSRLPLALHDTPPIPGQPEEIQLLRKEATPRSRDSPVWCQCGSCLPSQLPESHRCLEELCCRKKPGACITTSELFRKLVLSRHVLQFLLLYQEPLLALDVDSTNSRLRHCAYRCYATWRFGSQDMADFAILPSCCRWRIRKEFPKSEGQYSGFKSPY

[5] = target: T1, P2X7 receptor (mP2X7R); assay: agonist dose-response, PI dye uptake in J774.G8 cells, plate reader

- IC50 [1]: 173 to 285 µM
Structure (SMILES): Nc1ncnc2c1ncn2[C@@H](C=O)O[C@@H](C=O)COP(=O)(O)OP(=O)(O)OP(=O)(O)O [OATP, oxidized ATP]

- IC50 [2]: 1.3 to 2.6 µM
Structure (SMILES): CCOc1ccc(Nc2ccc(/C(=C3C=C/C(=[N+](/CC)Cc4cccc(S(=O)(=O)[O-])c4)C=C/3C)c3ccc(N(CC)Cc4cccc(S(=O)(=O)O)c4)cc3C)cc2)cc1 [BBG, Brilliant Blue G]

Structure (SMILES): O=C1CSC(=O)N1C(CCc1ccncc1)COc1ccc(-c2cccc([N+](=O)[O-])c2)cc1 (centres unmarked) [AZ, AZ11645373]
- block of ATP-induced PI dye uptake in J774.G8 cells at a single concentration (1) [3]: the treatment with the selective P2X7R antagonist AZ11645373 blocked the dye uptake
- block of ATP-induced PI dye uptake in U937 cells at a single concentration (10 μ) [4]: the treatment with the selective P2X7R antagonist AZ11645373 blocked the dye uptake

Structure (SMILES): Nc1ncnc2c1ncn2[C@@H]1O[C@H](COP(=O)(O)OP(=O)(O)OP(=O)(O)O)[C@@H](O)[C@H]1O [ATP]
- EC50 [5]: 700 ± 70 µM
